Measurements published in patent US20120094919A1, “USE OF TRIPEPTIDES” (priority 2009, published 2012).

Assays:
Type in all cases: cell-based
Details in all cases: 3 days incubation
[1] = tested on: Decorin synthesis in normal human fibroblasts (NHF); assay: Decorin synthesis in normal human fibroblasts (EIA)
Method: (§1) Normal human fibroblasts (NHF) were grown in 96 well cell culture plates (Nunclon). After three days a tripeptide derivative of the present invention was added in medium without FCS and the cells were incubated for an additional three days. To measure Decorin synthesis an enzyme linked immunoassay (EIA) was performed. In brief: the cells were fixed with 4% paraformaldehyde, and permeabilized with 0.5 Triton-X100 followed by blocking of unspecific binding sites with 5% skim milk. To stain for Decorin the cells were incubated with goat-anti-Decorin antibody (R&Dsystems) which was detected with rabbit-anti-goat HRP conjugated (Pierce) secondary antibody. After addition of substrate Decorin synthesis was measured at 492 nm in an absorbance plate reader (Multiskan Ascent, Thermolabsystems).
(§2) The results were evaluated relative to a control consisting of cells that have not been treated with the tripeptide derivative of formula (I) and which is set to 100%.

[2] = tested on: Hyaluronan synthesis in normal human fibroblasts (NHF); assay: Hyaluronan synthesis in normal human fibroblasts (Hyaluronan Assay Kit)
Method: Normal human fibroblasts (NHF) were seeded in 96 well cell culture plates (Nunclon). After three days of growth a tripeptide derivative of the present invention was added in medium without FCS and the cells were incubated for an additional three days. Secreted Hyaluronan synthesis in the growth medium was measured using the Hyaluronan Assay Kit from Echelon (Salt Lake City, Utah).
as §2

[3] = tested on: Lumican synthesis in normal human fibroblasts (NHF); assay: Lumican synthesis in normal human fibroblasts (EIA)
Method: as §1, with “well” for “well cell”, “Lumican” for “Decorin”, “goat-anti-Lumican (L-20)” for “goat-anti-Decorin”, “(Santa Cruz Biotechnology, sc-27718)” for “(R&Dsystems)”, “[…]” for “rabbit-anti-goat”
as §2

[4] = 100 μM, relative to untreated control
[5] = 25 μM, untreated control = 100%
[6] = 50 μM, untreated control = 100%
[7] = 10 μM, untreated control = 100%
[8] = 12.5 μM, untreated control = 100%

| Substance | Synthesis Stimulation of Decorin [1, 4] | Synthesis Stimulation of Hyaluronan [2, 4] | Synthesis Stimulation of Lumican [3, 4] | Synthesis Stimulation of Hyaluronan [2, 5] | also measured |
| --- | --- | --- | --- | --- | --- |
| Caprinoyl-Lys-Val-Lys-OH*2TFA [Tripeptide No 13] | inactive | inactive | inactive |  |  |
| H-Lys-Val-Lys-OH *3 TFA [Tripeptide No 15] | inactive | inactive | inactive |  |  |
| Lauroyl-Lys-Val-Lys-OH*2TFA [Tripeptide No 12] | inactive | inactive | inactive |  |  |
| Myristoyl-Lys-Val-Lys-OH*2TFA [Tripeptide No 11] | inactive | inactive | inactive |  |  |
| Palm-Lys-Ile-Dab-OH *2TFA [Tripeptide No 4] |  |  |  | 180% |  |
| Palm-Lys-Leu-Dab-OH *2TFA [Tripeptide No 6] |  |  |  |  | Synthesis Stimulation of Hyaluronan [2, 6]: 220% |
| Palm-Lys-Leu-Lys-OH *2 TFA [Tripeptide No 3] |  |  |  | 180% |  |
| Palm-Lys-Nva-Dab-OH *2TFA [Tripeptide No 5] |  |  |  | 220% |  |
| Palm-Lys-Val-Dab-NH-Hexadecyl *2 TFA [Tripeptide No 7] |  |  |  | 300% |  |
| Palm-Lys-Val-Dab-OH *2 TFA [Tripeptide No 18] | inactive | inactive | inactive |  |  |
| Palm-Lys-Val-Dap-OH *2 TFA [Tripeptide No 17] | inactive | inactive | inactive |  |  |
| Palm-Lys-Val-Lys-OH *2 TFA [Tripeptide No 1] |  |  |  |  | Synthesis Stimulation of Decorin [1, 5]: 200%/25 μM; Synthesis Stimulation of Hyaluronan [2, 7]: 220%; Synthesis Stimulation of Lumican [3, 7]: 120% |
| Palm-Lys-Val-Orn-OH *2 TFA [Tripeptide No 16] | inactive | inactive | inactive |  |  |
| Palm-Orn-Val-Lys-OH *2 TFA [Tripeptide No 2] |  |  |  |  | Synthesis Stimulation of Hyaluronan [2, 6]: 180% |
| Stearoyl-Lys-Val-Lys-OH*2TFA [Tripeptide No 14] | inactive | inactive | inactive |  |  |
| Tetradecyl-NH—C(O)-Arg-Val-Arg-OH *2 TFA [Tripeptide No 10] |  |  |  | 220% |  |
| Tetradecyl-NH—C(O)-Dab-Val-Dab-OH *2 TFA [Tripeptide No 8] |  |  |  |  | Synthesis Stimulation of Decorin [1, 8]: 170%; Synthesis Stimulation of Hyaluronan [2, 8]: 400%; Synthesis Stimulation of Lumican ([3]; 100 μM, untreated control = 100%): 165%/100 μM |
| Tetradecyl-NH—C(O)-Lys-Ile-Dab-OH *2 TFA [Tripeptide No 9] |  |  |  | 220% |  |
